How the values were obtained:
[1] = target: T1, CDK16 (Homo sapiens, UniProt Q00536); assay: DSF; type: binding; details: 10 μM compound
T1 construct: purchased in-house DSF panel (SGC Frankfurt)
From the text: (§1) To investigate the selectivity profile of the different series, a differential scanning fluorimetry (DSF) assay was used. This assay offers a rapid and sensitive screening method that determines the denaturation temperature of a protein in absence and presence of a compound. This assay format measures the fluorescence of a dye, which depends on the folding state of the protein. The difference between the melting temperature (ΔTm) in the absence and presence of the compound represents the binding strength to the protein.
(§2) Measurements were performed in duplicates.

[2] = target: T2, CDK2 (Homo sapiens, UniProt P24941); assay: DSF; type: binding; details: 10 μM compound
T2 construct: purchased in-house DSF panel (SGC Frankfurt)
From the text: as §1, §2

[3] = system: in-house panel of 89–105 kinases; assay: DSF selectivity screen; type: binding; details: number of kinases of the DSF panel
From the text: To investigate the selectivity profile of the different series, a differential scanning fluorimetry (DSF) assay was used. This assay offers a rapid and sensitive screening method that determines the denaturation temperature of a protein in absence and presence of a compound. This assay format measures the fluorescence of a dye, which depends on the folding state of the protein. The difference between the melting temperature (ΔTm) in the absence and presence of the compound represents the binding strength to the protein. We used an in-house panel of 89–105 kinases to screen all synthesized inhibitors (Tables S1–S3).
as §2

[4] = target: T3, CDK16/Cyclin Y (Homo sapiens, UniProt Q00536); assay: NanoBRET; type: cell-based; details: Figure 7, 11-point dose-response in duplicates; read-out: NanoBRET EC50 ± SEM against CDK16
T3 construct: Full-length kinases were obtained as plasmids cloned in frame with a terminal NanoLuc-fusion; CS1810C178 (CCNY); host or cells: HEK293T
T3 sequence (Q00536 whole entry, the tested form may be a part): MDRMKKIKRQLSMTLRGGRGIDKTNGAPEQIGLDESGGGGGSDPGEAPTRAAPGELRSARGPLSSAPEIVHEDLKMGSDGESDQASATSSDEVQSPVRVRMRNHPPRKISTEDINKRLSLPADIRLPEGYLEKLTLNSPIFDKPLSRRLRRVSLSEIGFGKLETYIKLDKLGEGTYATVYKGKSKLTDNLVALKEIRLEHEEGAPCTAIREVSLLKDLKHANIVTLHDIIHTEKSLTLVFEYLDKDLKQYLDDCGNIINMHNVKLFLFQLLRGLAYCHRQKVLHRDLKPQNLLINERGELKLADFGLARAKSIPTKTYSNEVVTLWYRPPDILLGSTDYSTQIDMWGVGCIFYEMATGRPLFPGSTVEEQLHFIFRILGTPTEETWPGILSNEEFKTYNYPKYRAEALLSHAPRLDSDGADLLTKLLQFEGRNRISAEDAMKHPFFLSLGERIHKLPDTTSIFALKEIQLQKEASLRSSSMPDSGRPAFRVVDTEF
T3 sequence (Q8ND76 2-341 partner limits assumed): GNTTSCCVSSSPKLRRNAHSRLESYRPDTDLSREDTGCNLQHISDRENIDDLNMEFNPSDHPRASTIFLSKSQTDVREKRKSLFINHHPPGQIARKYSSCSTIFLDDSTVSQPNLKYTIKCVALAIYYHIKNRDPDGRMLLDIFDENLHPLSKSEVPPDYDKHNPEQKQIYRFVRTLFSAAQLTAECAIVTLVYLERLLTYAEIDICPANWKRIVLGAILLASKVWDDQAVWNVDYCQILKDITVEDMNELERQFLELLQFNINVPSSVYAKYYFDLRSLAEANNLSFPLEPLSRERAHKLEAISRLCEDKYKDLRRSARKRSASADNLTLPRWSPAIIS
Method: Next, to specifically quantify the outcome of the cellular activity of the compounds, a NanoBRET cellular target engagement assay was performed. The determination of the cellular potency on CDK16 correlated well with the corresponding DSF assay data (Figure S2). […] As mentioned before, the exchange from a methyl ester to an iso-propyl or tert-butyl ester led to a higher stabilization of the kinase in the DSF assay, which correlated with an increase in cellular potency as determined in the NanoBRET assay. […] The number of potential off-targets was low with 1 and 2 kinases with ΔTm >5 °C (Figure 4), highlighting these inhibitors for more comprehensive selectivity studied within the CDK and particular the TAIRE subfamily.
The assay was performed as described previously. In brief: Full-length kinases were obtained as plasmids cloned in frame with a terminal NanoLuc-fusion (Promega, Madison, WI, USA), as specified in table (Table S6). Plasmids were transfected into HEK293T cells using FuGENE HD (Promega, E2312) and proteins were allowed to express for 20h. Serially diluted inhibitor and NanoBRET Kinase Tracer (Promega) at a concentration determined previously as the KD,app (Table S5) were pipetted into white 384-well plates (Greiner 781207) using an Echo acoustic dispenser (Labcyte, San Jose, CA, USA). The corresponding protein-transfected cells were added and reseeded at a density of 2.5 × 10^5 cells/mL after trypsinization and resuspending in Opti-MEM without phenol red (Life Technologies, Carlsbad, CA, USA). The system was allowed to equilibrate for 2 h at 37 °C/5% CO2 prior to BRET measurements. To measure BRET, NanoBRET NanoGlo Substrate + Extracellular NanoLuc Inhibitor (Promega, N2540) was added as per the manufacturer’s protocol, and filtered luminescence was measured on a PHERAstar plate reader (BMG Labtech, Ortenberg, Germany) equipped with a luminescence filter pair (450 nm BP filter (donor) and 610 nm LP filter (acceptor)). Competitive displacement data were then graphed using GraphPad Prism 9 software using a normalized 3-parameter curve fit with the following equation: Y = 100/(1 + 10^(X–LogEC50)).

[5] = target: GSK3B (Homo sapiens, UniProt P49841); assay: DSF; type: binding; set-up: purchased in-house DSF panel (SGC Frankfurt); details: 10 μM compound
Sequence of GSK3B (P49841 35-386): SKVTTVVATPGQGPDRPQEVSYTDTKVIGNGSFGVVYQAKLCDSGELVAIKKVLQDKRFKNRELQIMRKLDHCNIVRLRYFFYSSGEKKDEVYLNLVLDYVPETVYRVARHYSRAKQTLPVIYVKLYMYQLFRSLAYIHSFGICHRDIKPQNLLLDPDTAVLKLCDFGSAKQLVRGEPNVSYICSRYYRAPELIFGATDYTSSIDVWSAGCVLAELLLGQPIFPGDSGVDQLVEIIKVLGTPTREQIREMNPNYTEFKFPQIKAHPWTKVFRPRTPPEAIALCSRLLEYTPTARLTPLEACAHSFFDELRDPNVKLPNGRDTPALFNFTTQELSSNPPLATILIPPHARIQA
From the text: as §1, §2

[6] = system: HCT116-FUCCI cells; assay: FUCCI cell cycle assay and viability assessment; type: cell-based; details: 1, 5, 10 µM (milciclib 1, 10 µM), 24 h
Method: This technology enables the detection of cell cycle states (G1, G2/M, or S phase) on a single cell level. Additionally, a viability assessment, as described by Tjaden et. al., was performed using Hoechst33342 as a nuclear marker. […] At 10 µM of the same compound, the pyknosed nuclei rate was even higher, on average 45% (Figure 9C). An increase in cells including a pyknosed nucleus indicate apoptotic cell death, due to typical morphological changes like DNA condensation. […] Milciclib is a published CDK2 inhibitor and was used as a reference compound [55]. […] At later time points, the G2/M phase arrest was no longer detectable (Table S7). This can be explained due to the increasing amount of apoptotic cells.
To validate the influence of the compounds on the cell cycle, a florescent ubiquitination-based cell cycle indicator (FUCCI) assay was performed as described previously. In Brief, HCT116-FUCCI cells, stably expressing the FUCCI system, introduced by the Sleeping Beauty transposon system, were seeded at a density of 1250 cells per well in a 384 well plate (Cell culture microplate, PS, f-bottom, µClear®, 781091, Greiner, Frickenhausen, Germany) in culture medium (50 µL per well) and stained additionally with 60 nM Hoechst33342 (Thermo Scientific). Fluorescence and cellular shape were measured before and after compound treatment for 72 h every 12 h using the CQ1 high-content confocal microscope (Yokogawa, Tokyo, Japan). Compounds were added directly to the cells at three different concentrations (1 µM, 5 µM and 10 µM). The following parameters were used for image acquisition: Ex 405 nm/Em 447/60 nm, 500ms, 50%; Ex 561 nm/Em 617/73 nm, 100 ms, 40%; Ex 488/Em 525/50 nm, 50 ms, 40%; Ex 640 nm/Em 685/40, 50 ms, 20 %; bright field, 300ms, 100% transmission, one centered field per well, 7 z stacks per well with 55 µm spacing. Analysis of images was performed using the CellPathfinder software (Yokogawa). The cell count was normalized against the cell count of cells treated with 0.1% DMSO. All normal gated cells were further classified in cells containing healthy, fragmented or pyknosed nuclei. […] Error bars show SEM of biological duplicates. All data can be found in Table S7.

T1 sequence (Q00536 163-478): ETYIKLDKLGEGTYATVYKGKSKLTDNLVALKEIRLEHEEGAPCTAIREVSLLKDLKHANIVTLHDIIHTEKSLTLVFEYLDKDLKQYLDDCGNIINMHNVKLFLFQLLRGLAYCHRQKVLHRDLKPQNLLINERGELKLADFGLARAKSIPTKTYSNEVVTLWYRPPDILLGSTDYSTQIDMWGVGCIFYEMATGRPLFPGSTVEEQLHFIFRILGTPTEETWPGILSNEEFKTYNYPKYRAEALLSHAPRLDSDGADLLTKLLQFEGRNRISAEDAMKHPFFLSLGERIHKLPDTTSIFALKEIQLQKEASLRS

Row | ΔTm at 10 µM [1] | ΔTm at 10 µM [2] | EC50 [4] | ΔTm at 10 µM [5] | SMILES | Kinases with shifts > 5°C [3] | effect on the cell cycle (FUCCI) [6]
1 | 3.7 ± 0.1 °C | 4.7 °C | 1100 ± 44.5 nM | 5.1 °C | Cc1cnc(Nc2cccc(CCNC(=O)OC(C)(C)C)c2)nc1Nc1cc(C2CC2)n[nH]1 [12b, tert-butyl 3-((4-((3-cyclopropyl-1H-pyrazol-5-yl)amino)-5-methylpyrimidin-2-yl)amino)-phenethylcarbamate] | – | –
2 | 5.8 ± 0.2 °C | 4.7 ± 0.1 °C | 253 ± 19.2 nM | 4.6 ± 0.1 °C | Cc1cc(Nc2ccnc(NCCCCCNC(=O)OC(C)(C)C)n2)[nH]n1 [38b, tert-butyl (5-((4-((3-methyl-1H-pyrazol-5-yl)amino)pyrimidin-2-yl)amino)pentyl)-carbamate] | – | –
3 | 1.4 ± 0.4 °C | 2.7 ± 0.2 °C | 5550 ± 636 nM | 9.3 ± 0.1 °C | CNC(=O)c1cc(Nc2ccnc(Nc3ccc(CC#N)cc3)n2)[nH]n1 [41c, 5-((2-((4-(cyanomethyl)phenyl)amino)pyrimidin-4-yl)amino)-N-methyl-1H-pyrazole-3-carboxamide] | – | –
4 | 5.7 ± 0.1 °C | 10.7 ± 0.1 °C | 351 ± 34.1 nM | 10.4 °C | CC(C)(C)c1cc(Nc2ccnc(Nc3ccc(CC#N)cc3)n2)[nH]n1 [40c, 2-(4-((4-((3-(tert-butyl)-1H-pyrazol-5-yl)amino)pyrimidin-2-yl)amino)phenyl)acetonitrile] | – | –
5 | 5.7 ± 0.2 °C | 10.7 ± 0.1 °C | 388 ± 32 nM | 10.4 ± 0.1 °C | Cc1cc(Nc2ccnc(Nc3ccc(CCNC(=O)OC(C)(C)C)cc3)n2)[nH]n1 [38a, tert-butyl 4-((4-((3-methyl-1H-pyrazol-5-yl)amino)pyrimidin-2-yl)amino)phenethyl-carbamate] | – | –
6 | 7.3 ± 0.1 °C | 6.3 ± 0.2 °C | 67 ± 1.3 nM | 5.9 ± 0.2 °C | CC(C)(C)OC(=O)NCCOCCNc1nccc(Nc2cc(C3CC3)n[nH]2)n1 [11d, tert-butyl (2-(2-((4-((3-cyclopropyl-1H-pyrazol-5-yl)amino)pyrimidin-2-yl)amino)ethoxy)-ethyl)carbamate] | – | –
7 | 8.6 ± 0.1 °C | 9.5 ± 0.1 °C | 47 ± 4.1 nM | 6.2 ± 0.1 °C | CC(C)c1cc(Nc2ccnc(NCCCCCNC(=O)OC(C)(C)C)n2)[nH]n1 [39b, tert-butyl (5-((4-((3-isopropyl-1H-pyrazol-5-yl)amino)pyrimidin-2-yl)amino)pentyl)-carbamate] | – | –
8 | 8.9 ± 0.3 °C | 11.2 ± 0.3 °C | 36 ± 1.2 nM | 6.8 °C | CC(C)(C)OC(=O)NCCCCCCNc1nccc(Nc2cc(C3CC3)n[nH]2)n1 [11e, tert-butyl (6-((4-((3-cyclopropyl-1H-pyrazol-5-yl)amino)pyrimidin-2-yl)amino)hexyl)-carbamate] | – | –
9 | 7.9 ± 0.4 °C | 9.8 ± 1.3 °C | 70 ± 4.9 nM | 7 ± 0.1 °C | CC(C)c1cc(Nc2ccnc(Nc3ccc(CCNC(=O)OC(C)(C)C)cc3)n2)[nH]n1 [39a, tert-butyl 4-((4-((3-isopropyl-1H-pyrazol-5-yl)amino)pyrimidin-2-yl)amino)phenethyl-carbamate] | – | –

Further lines, the compound ahead of its results:

Row | SMILES | ΔTm at 10 µM [1] | ΔTm at 10 µM [2] | EC50 [4] | ΔTm at 10 µM [5] | Kinases with shifts > 5°C [3] | effect on the cell cycle (FUCCI) [6]
10 | CC(C)(C)OC(=O)NCCCCCNc1nccc(Nc2cc(C(=O)OC(C)(C)C)[nH]n2)n1 [43b, tert-butyl 3-((2-((5-((tert-butoxycarbonyl)amino)pentyl)amino)pyrimidin-4-yl)amino)-1H-pyrazole-5-carboxylate] | 9.3 ± 0.1 °C | 6.5 ± 0.1 °C | 76 ± 0.9 nM | 6.6 ± 0.1 °C | 7–10 | –
11 | CC(C)OC(=O)c1cc(Nc2ccnc(NCCCCCNC(=O)OC(C)(C)C)n2)n[nH]1 [42b, isopropyl 3-((2-((5-((tert-butoxycarbonyl)amino)pentyl)amino)pyrimidin-4-yl)amino)-1H-pyrazole-5-carboxylate] | 9.1 ± 0.1 °C | 6.5 °C | 54 ± 1.8 nM | 7.8 ± 0.3 °C | 7–10 | –
12 | COC(=O)c1cc(Nc2nc(NCCCCCNC(=O)OC(C)(C)C)ncc2Cl)[nH]n1 [22c, methyl 5-((2-((5-((tert-butoxycarbonyl)amino)pentyl)amino)-5-chloropyrimidin-4-yl)amino)-1H-pyrazole-3-carboxylate] | 1 ± 0.1 °C | 1.5 ± 0.1 °C | 8320 ± 227 nM | 4.8 ± 0.2 °C | – | –
13 | COC(=O)c1cc(Nc2nc(NCCCCCNC(=O)OC(C)(C)C)nc3ccccc23)[nH]n1 [23c, methyl 5-((2-((5-((tert-butoxycarbonyl)amino)pentyl)amino)quinazolin-4-yl)amino)-1H-pyrazole-3-carboxylate] | 3.4 ± 0.1 °C | 1.3 ± 0.5 °C | 4600 ± 385 nM | 4.2 °C | – | –
14 | COC(=O)c1cc(Nc2nc(Nc3cccc(CCNC(=O)OC(C)(C)C)c3)nc3ccccc23)[nH]n1 [23b, methyl 5-((2-((3-(2-((tert-butoxycarbonyl)amino)ethyl)phenyl)amino)quinazolin-4-yl)amino)-1H-pyrazole-3-carboxylate] | 0.2 ± 0.2 °C | 0.6 °C | 6820 ± 280 nM | 1.4 ± 0.3 °C | – | –
15 | CNC(=O)c1nn(C)c2c1C(C)(C)Cc1cnc(Nc3ccc(N4CCN(C)CC4)cc3)nc1-2 [Milciclib, reference compound] | – | – | – | – | – | G1 cell cycle arrest
16 | COC(=O)c1cc(Nc2nc(Nc3ccc(CCNC(=O)OC(C)(C)C)cc3)ncc2Cl)[nH]n1 [22a, methyl 5-((2-((4-(2-((tert-butoxycarbonyl)amino)ethyl)phenyl)amino)-5-chloropyrimidin-4-yl)amino)-1H-pyrazole-3-carboxylate] | 0.3 ± 0.1 °C | 2 ± 0.3 °C | 1860 ± 276 nM | 3.3 ± 0.5 °C | – | –
17 | CC(C)(C)OC(=O)NCCCCCNc1nccc(Nc2cc(C3CC3)[nH]n2)n1 [11c, tert-butyl (5-((4-((3-cyclopropyl-1H-pyrazol-5-yl)amino)pyrimidin-2-yl)amino)pentyl) carbamate] | 9.4 °C | 10.4 ± 0.3 °C | 33 ± 0.1 nM | 7.1 ± 0.2 °C | – | –
